Results as given in article PMC7603469, “The biologically functional identification of a novel TIM3-binding peptide P26 in vitro and in vivo” (Cancer Chemotherapy and Pharmacology, 2020).
Where a SMILES comes first, the peptide text is derived from it.

Assays:
TIM3 = target: T1, TIM3 (Mus musculus, UniProt Q8VIM0); test: SPR binding, TIM3 immobilized on chip; conditions: TIM3 50 μg/mL immobilized on nanogold sensor chip (EDC/NHS), flow rate 20 μL/min for about 7 min, read-out: affinity constant (KD)
T1 construct: purchased Chimerigen CHI-MF-210T3-C050
Description: Surface plasmon resonance (SPR) assay. The affinity identification between P26 and TIM3 was performed by immobilizing the TIM3 protein (50 μg/mL) on the surface of the nanogold sensor chip after the chip was activated by EDC/NHS. P26/Gal-9 competition assay was performed by immobilizing Gal-9 protein (25 µg/mL) on the sensor chip. Each sample was injected at a flow rate of 20 μL/min for about 7 min. KD, ka, and kd were calculated by Trace Drawer Evaluation (version 2.0).

MC38-hPD-L1 tumor = test: Tumor growth assay, MC38-hPD-L1 tumor-bearing B-hTIM-3 humanized mice; type: in vivo, mouse; conditions: P26 5 mg/kg/d, ATE 10 mg/kg/4d, n = 7
Description: C57BL/6 mice transgenic for B-hHAVCR2 (TIM3) (Biocytogen, Beijing, China) were used to evaluate the anti-tumor activity of P26 in vivo. After 1 week of adaptive feeding, 6-week-old female mice were inoculated with 0.1 mL of MC38-hPD-L1 cells (1 × 10^6 cells) by subcutaneous injection on the right scapula followed by the measurements of tumor volume and body weight. When the average tumor volume reached about 80 mm^3, mice were randomly divided into […] groups and administrated with different drugs: (A) PBS (control), (B) ATE (PD-L1 inhibitor Atezolizumab, 10 mg/kg/4d, as the positive group), (C) P26 (5 mg/kg/d), and (D) P26 (5 mg/kg/d) plus ATE (10 mg/kg/4d). The weight and tumor volume of the mice were measured twice a week. When the body weight loss (% BWL) was above 20%, the drug was discontinued, and then, ethically acceptable execution to mice was adopted upon the failure of weight loss recovery in 72 h. The weight and volume of tumors were then analyzed.

T1 sequence (Q8VIM0 20-193 limits assumed): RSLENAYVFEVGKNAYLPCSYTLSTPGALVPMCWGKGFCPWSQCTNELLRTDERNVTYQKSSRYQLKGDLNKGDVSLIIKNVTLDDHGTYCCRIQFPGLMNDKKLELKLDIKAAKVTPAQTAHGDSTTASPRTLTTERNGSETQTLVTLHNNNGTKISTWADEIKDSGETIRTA

Compound | Kd (TIM3) | inhibition of MC38-hPD-L1 tumor growth vs solvent control (in words) (MC38-hPD-L1 tumor; tumor nodules on day 36, Fig. 4b, c) | tumor volume inhibition rate (MC38-hPD-L1 tumor; vs PBS control, start day 10, sacrificed day 36, Fig. 4d)
CC[C@H](C)[C@H](NC(=O)[C@H](Cc1c[nH]cn1)NC(=O)[C@H](CCSC)NC(=O)[C@@H](NC(=O)[C@@H](NC(=O)[C@H](CC(C)C)NC(=O)[C@@H]1CCCN1C(=O)[C@@H](NC(=O)[C@H](CC(C)C)NC(=O)CN)[C@@H](C)CC)[C@@H](C)O)[C@@H](C)O)C(=O)NCC(=O)N[C@@H](CCCCN)C(=O)O [Peptide P26] (H-GLIPLTTMHIGK-OH) | 34.4 µM |  | 
ATE: PD-L1 inhibitor Atezolizumab, positive group |  | significantly inhibit the growth | 43.71%
